The values below come from patent EP0338634B1, “Viper venom polypeptides and genetic expression” (Merck & Co., Inc., priority 1988, dated 1989).

Like-named read-outs stand apart in the source and are kept apart here. Bridge positions count the residues as written; N and C are the ends. Square brackets hold non-standard residues; d marks the D form. Ends that are not written are not given here. Peptide text beside a SMILES is read from it. Met(O) = CS(=O)CC[C@H](N)C(=O)O

This assay deals with human platelet aggregation (Homo sapiens, UniProt P05106+P08514). Description: Platelet aggregation assay for synthetic echistatin and analogs (chronolog aggregometer). In kind it is cell-based. The note with it: read-out: IC₅₀(µM)(95% CONFIDENCE LIMITS). Here is the method:
Platelet aggregation was measured at 37°C in a chronolog aggregometer. The reaction mixture contained washed platelets (2 x 10⁸/ml), fibrinogen ([…]), Ca²⁺ (1 mM), and the platelet aggregation inhibitor fraction to be tested The aggregation was initiated by adding […] ADP 1 min after the other components had been added. The reaction was allowed to proceed for at least 2 min. The extent of inhibition of aggregation was expressed as the percentage of the rate of aggregation observed in the absence of inhibitor. […]
The concentration of peptide necessary to inhibit the rate of human platelet aggregation by 50% (IC₅₀) was determined using platelets from 2-4 donors. Determinations were performed in duplicate for each donor.

[1] abbreviates: human platelet aggregation, Table 5.

Sequence of human platelet aggregation (P08514 32-1039): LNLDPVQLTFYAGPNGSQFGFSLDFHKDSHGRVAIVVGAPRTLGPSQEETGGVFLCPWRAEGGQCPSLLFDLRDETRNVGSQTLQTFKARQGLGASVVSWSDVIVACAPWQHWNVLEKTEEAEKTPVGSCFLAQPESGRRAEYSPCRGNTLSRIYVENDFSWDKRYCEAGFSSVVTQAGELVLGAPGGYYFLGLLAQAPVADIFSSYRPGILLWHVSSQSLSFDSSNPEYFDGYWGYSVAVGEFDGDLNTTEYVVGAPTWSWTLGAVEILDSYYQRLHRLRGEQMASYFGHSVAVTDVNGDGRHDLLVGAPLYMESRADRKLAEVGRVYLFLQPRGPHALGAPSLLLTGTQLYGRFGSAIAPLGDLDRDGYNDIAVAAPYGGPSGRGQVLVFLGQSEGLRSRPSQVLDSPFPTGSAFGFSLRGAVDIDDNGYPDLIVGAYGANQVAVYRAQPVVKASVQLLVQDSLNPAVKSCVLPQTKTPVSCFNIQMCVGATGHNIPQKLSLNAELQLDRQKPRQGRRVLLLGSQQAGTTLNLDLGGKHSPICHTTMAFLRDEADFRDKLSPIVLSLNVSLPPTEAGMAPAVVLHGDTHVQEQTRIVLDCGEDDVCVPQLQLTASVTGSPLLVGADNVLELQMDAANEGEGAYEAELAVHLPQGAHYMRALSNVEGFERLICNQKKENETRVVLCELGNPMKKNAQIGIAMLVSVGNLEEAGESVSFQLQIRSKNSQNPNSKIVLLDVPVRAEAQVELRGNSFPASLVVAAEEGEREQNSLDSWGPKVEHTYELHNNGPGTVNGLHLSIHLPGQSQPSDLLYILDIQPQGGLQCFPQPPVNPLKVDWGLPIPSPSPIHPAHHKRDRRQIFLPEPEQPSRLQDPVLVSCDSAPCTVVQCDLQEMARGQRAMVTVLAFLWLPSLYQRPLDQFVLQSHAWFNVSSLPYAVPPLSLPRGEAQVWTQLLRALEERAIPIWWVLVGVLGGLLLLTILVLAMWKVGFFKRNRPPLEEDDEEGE
Sequence of human platelet aggregation (P05106 27-788): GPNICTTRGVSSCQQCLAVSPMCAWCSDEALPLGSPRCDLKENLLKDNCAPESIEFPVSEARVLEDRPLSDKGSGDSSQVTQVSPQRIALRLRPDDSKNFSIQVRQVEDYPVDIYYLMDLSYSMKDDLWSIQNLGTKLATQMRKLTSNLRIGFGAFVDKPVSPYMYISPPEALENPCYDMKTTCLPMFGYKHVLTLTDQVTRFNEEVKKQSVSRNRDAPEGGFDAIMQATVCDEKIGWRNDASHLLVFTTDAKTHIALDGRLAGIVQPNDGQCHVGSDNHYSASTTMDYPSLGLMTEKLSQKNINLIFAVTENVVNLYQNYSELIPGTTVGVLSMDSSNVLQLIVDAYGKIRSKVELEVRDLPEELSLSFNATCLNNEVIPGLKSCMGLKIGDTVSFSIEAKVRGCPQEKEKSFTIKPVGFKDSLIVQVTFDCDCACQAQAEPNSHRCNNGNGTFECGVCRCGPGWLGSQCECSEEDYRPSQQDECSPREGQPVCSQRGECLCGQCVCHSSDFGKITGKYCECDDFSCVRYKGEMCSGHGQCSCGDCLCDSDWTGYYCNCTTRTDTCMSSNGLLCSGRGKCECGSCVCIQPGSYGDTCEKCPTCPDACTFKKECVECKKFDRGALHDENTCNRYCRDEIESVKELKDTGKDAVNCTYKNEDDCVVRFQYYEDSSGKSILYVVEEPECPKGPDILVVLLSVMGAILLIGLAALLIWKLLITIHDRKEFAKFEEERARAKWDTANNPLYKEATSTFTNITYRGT

Take `CC[C@H](C)[C@@H]1NC(=O)[C@H]([C@@H](C)O)NC(=O)CNC(=O)[C@H](CCC(=O)O)NC(=O)[C@H](CCCCN)NC(=O)[C@H](CC(C)C)NC(=O)[C@H](Cc2ccccc2)NC(=O)[C@H](CCCCN)NC(=O)[C@@H]2CSSC[C@H](NC(=O)[C@@H](N)CCC(=O)O)C(=O)N[C@@H](CCC(=O)O)C(=O)N[C@@H](CO)C(=O)NCC(=O)N3CCC[C@H]3C(=O)N[C@H]3CSSC[C@@H]4NC(=O)[C@H](Cc5ccc(O)cc5)NC(=O)[C@H](CC(=O)O)NC(=O)[C@H](CC(=O)O)NC(=O)[C@H](CC(C)C)NC(=O)[C@H](CC(=O)O)NC(=O)[C@H](CC(=O)O)NC(=O)CNC(=O)[C@H](CCCNC(=N)N)NC(=O)[C@H](C)NC(=O)[C@H](CCCNC(=N)N)NC(=O)[C@H](CCCCN)NC(=O)[C@H](CSSC[C@@H](C(=O)N5CCC[C@H]5C(=O)N[C@@H](CCCNC(=N)N)C(=O)N[C@@H](CC(N)=O)C(=O)N5CCC[C@H]5C(=O)N[C@@H](Cc5c[nH]cn5)C(=O)N[C@@H](CCCCN)C(=O)NCC(=O)N5CCC[C@H]5C(=O)N[C@@H](C)C(=O)N[C@H](C(=O)O)[C@@H](C)O)NC(=O)[C@H](CC(=O)O)NC(=O)[C@H](CSSC[C@H](NC3=O)C(=O)N[C@@H](CCCNC(=N)N)C(=O)N[C@@H](CC(N)=O)C(=O)N2)NC(=O)[C@H]([C@@H](C)O)NC(=O)[C@H](CCCCN)NC(=O)CNC(=O)[C@H](CC(N)=O)NC4=O)NC1=O` [Example 13, leu 28-echistatin]: the IC50 under setting [1] worked out at 0.034 µM.
For `CC[C@H](C)[C@@H]1NC(=O)[C@H]([C@@H](C)O)NC(=O)CNC(=O)[C@H](CCC(=O)O)NC(=O)[C@H](CCCCN)NC(=O)[C@H](CC(C)C)NC(=O)[C@H](Cc2ccccc2)NC(=O)[C@H](CCCCN)NC(=O)[C@@H]2CSSC[C@H](NC(=O)[C@@H](N)CCC(=O)O)C(=O)N[C@@H](CCC(=O)O)C(=O)N[C@@H](CO)C(=O)NCC(=O)N3CCC[C@H]3C(=O)N[C@H]3CSSC[C@@H]4NC(=O)[C@H](Cc5ccc(O)cc5)NC(=O)[C@H](CC(=O)O)NC(=O)[C@H](CC(=O)O)NC(=O)[C@H](CCSC)NC(=O)[C@H](CC(=O)O)NC(=O)[C@H](CC(=O)O)NC(=O)CNC(=O)[C@H](CCCNC(=N)N)NC(=O)[C@H](C)NC(=O)[C@H](CCCNC(=N)N)NC(=O)[C@H](CCCCN)NC(=O)[C@H](CSSC[C@@H](C(N)=O)NC(=O)[C@H](CC(=O)O)NC(=O)[C@H](CSSC[C@H](NC3=O)C(=O)N[C@@H](CCCNC(=N)N)C(=O)N[C@@H](CC(N)=O)C(=O)N2)NC(=O)[C@H]([C@@H](C)O)NC(=O)[C@H](CCCCN)NC(=O)CNC(=O)[C@H](CC(N)=O)NC4=O)NC1=O` [Example 19, (1-39)-echistatin amide] (H-ECESGPCCRNCKFLKEGTICKRARGDDMDDYCNGKTCDC-NH2; disulfide 2-11, 7-32, 8-37, 20-39), the IC50 under setting [1] was 0.327 µM.
As to `CC[C@H](C)[C@@H]1NC(=O)[C@H]([C@@H](C)O)NC(=O)CNC(=O)[C@H](CCC(=O)O)NC(=O)[C@H](CCCCN)NC(=O)[C@H](CC(C)C)NC(=O)[C@H](Cc2ccccc2)NC(=O)[C@H](CCCCN)NC(=O)[C@@H]2CSSC[C@H](NC(=O)[C@@H](N)CCC(=O)O)C(=O)N[C@@H](CCC(=O)O)C(=O)N[C@@H](CO)C(=O)NCC(=O)N3CCC[C@H]3C(=O)N[C@H]3CSSC[C@@H]4NC(=O)[C@H](Cc5ccc(O)cc5)NC(=O)[C@H](CC(=O)O)NC(=O)[C@H](CC(=O)O)NC(=O)[C@H](CCSC)NC(=O)[C@H](CC(=O)O)NC(=O)[C@H](CC(=O)O)NC(=O)CNC(=O)[C@H](CCCNC(=N)N)NC(=O)[C@H](C)NC(=O)[C@H](CCCNC(=N)N)NC(=O)[C@H](CCCCN)NC(=O)[C@H](CSSC[C@@H](C(=O)O)NC(=O)[C@H](CC(=O)O)NC(=O)[C@H](CSSC[C@H](NC3=O)C(=O)N[C@@H](CCCNC(=N)N)C(=O)N[C@@H](CC(N)=O)C(=O)N2)NC(=O)[C@H]([C@@H](C)O)NC(=O)[C@H](CCCCN)NC(=O)CNC(=O)[C@H](CC(N)=O)NC4=O)NC1=O` [Example 20, (1-39)-echistatin] (H-ECESGPCCRNCKFLKEGTICKRARGDDMDDYCNGKTCDC-OH; disulfide 2-11, 7-32, 8-37, 20-39), the IC50 under setting [1] is 0.8 µM.
Turning to “ECESGPCCRNCKFLKEGTICKRARGDD[Met(O)]DDYCNGKTCDCPRNPHKGPAT (disulfide 2-11, 7-32, 8-37, 20-39) [Example 18, met SO 28-echistatin]”, under setting [1], the IC50 worked out at 0.088 µM.
“H-ECESGPCCRNCKFLKEGTICKNARGDFLDDYCNGKTCDCPRNPHKGPAT-OH (disulfide 2-11, 7-32, 8-37, 20-39) [Example 15, asn 22, phe 27, leu 28-echistatin]”: the IC50 under setting [1] is 0.038 µM.
As for “H-ECESGPCCRNCKFLKEGTICKRARGDDFDDYCNGKTCDCPRNPHKGPAT-OH (disulfide 2-11, 7-32, 8-37, 20-39) [Example 14, phe 28-echistatin]”, the IC50 under setting [1] is 0.038 µM.
“H-ECESGPCCRNCKFLKEGTICKRARGDDMDDYCNGKTCDCPR-NH2 (disulfide 2-11, 7-32, 8-37, 20-39) [Example 16, (1-41)-echistatin amide]”: under setting [1], the IC50 was 0.066 µM.
On to “H-ECESGPCCRNCKFLKEGTICKRARGDDMDDYCNGKTCDCPRNP-NH2 (disulfide 2-11, 7-32, 8-37, 20-39) [Example 17, (1-43)-echistatin amide]”, for which, under setting [1], the IC50 stood at 0.081 µM.
Turning to “H-ECESGPCCRNCKFLKEGTICKRARGDDMDDYCNGKTCDCPRNPHKGPAT-OH (disulfide 2-11, 7-32, 8-37, 20-39) [Synthetic Echistatin, echistatin]”, under “rate of human platelet aggregation, platelets from 2-4 donors, duplicate, Table 4”, the IC50 worked out at 0.033 µM.
Regarding “H-ECESGPCCRNCKFLKEGTICKRARGDFLDDYCNGKTCDCPRNPHKGPAT-OH (disulfide 2-11, 7-32, 8-37, 20-39) [Example 10, phe 27, leu 28-echistatin]”, the IC50 under setting [1] worked out at 0.016 µM.
With “H-ECESGPCCRNCKFLKEGTICKRARGDFMDDYCNGKTCDCPRNPHKGPAT-OH (disulfide 2-11, 7-32, 8-37, 20-39) [Example 9, phe 27-echistatin]”, the IC50 under setting [1] was found to be 0.013 µM.
On the same count and under the same terms, the same measure for “H-ECESGPCCRNCKFLKEGTICKRARGDWMDDYCNGKTCDCPRNPHKGPAT-OH (disulfide 2-11, 7-32, 8-37, 20-39) [Example 11, trp 27-echistatin]”: 0.017 µM.
The same measure, in the same setting: the same measure for “H-ECESGPCCRNCKFLKEGTICKRPRGDFLDDYCNGKTCDCPRNPHKGPAT-OH (disulfide 2-11, 7-32, 8-37, 20-39) [Example 12, pro 23, phe 27, leu 28-echistatin]”: 0.026 µM.
